Here are results for 30 compounds from patent US11780849B2, “Imino sulfanone inhibitors of ENPP1” (Volastra Therapeutics, Inc., priority 2020, dated 2023).

One may read the IC50 as the concentration that gives 50% inhibition. The term Ki denotes the dissociation constant of the complex between target and ligand, obtained from inhibition or displacement.

Test [1] has as its target T1, ENPP-1 ECD (Homo sapiens (Human), UniProt P22413). As to the kind of experiment: Assay 1: inhibition of ENPP1 hydrolysis of 2′,3′-cGAMP (AMP-Glo, […] enzyme).
Method: Assay 1: Test compounds were plated in a 3× dilution scheme in a 384 well plate. […] AMP Detection solution (100 μL) was added to each well, the plate centrifuged and incubated for 60 min.
Test [2] deals with T1, ENPP-1 ECD. As to the kind of experiment: Assay 2: inhibition of ENPP1 hydrolysis of 2′,3′-cGAMP (AMP-Glo, […] enzyme).
Method: Assay 2: Compared to the conditions in Assay 1, this assay has a larger dynamic range and ensures the system is under steady-state conditions by reducing the enzyme concentration in the assay.
Test compounds were plated in a 3× dilution scheme in a 384 well plate. […] AMP Detection solution (10 μL) was added to each well, the plate centrifuged and incubated for 60 min.
Setting [3] is: Assay 1 (IC50), inhibition of ENPP1 hydrolysis of 2′,3′-cGAMP, no unit in Table 18 (Table 17 legend for this assay uses nM).
The mark [4] stands for this setting: read-out: Assay 1 (IC50), ENPP1 hydrolysis of 2′,3′-cGAMP, AMP-Glo.
Where [5] appears, read: Assay 2 (KI), ENPP1 hydrolysis of 2′,3′-cGAMP, AMP-Glo, […] ENPP-1, 24 μM cGAMP.
Where [6] appears, read: Assay 2 (KI), inhibition of ENPP1 hydrolysis of 2′,3′-cGAMP, no unit in Table 18 (Table 17 legend for this assay uses nM).
Setting [7] is: Assay 1 (IC50), ENPP1 hydrolysis of 2′,3′-cGAMP, AMP-Glo.
The mark [8] stands for this setting: read-out: Assay 1 (IC50), inhibition of ENPP1 hydrolysis of 2′,3′-cGAMP, no unit in Table 18 (Table 17 legend for this assay uses nM).
Where [9] appears, read: read-out: Assay 2 (KI), ENPP1 hydrolysis of 2′,3′-cGAMP, AMP-Glo, […] ENPP-1, 24 μM cGAMP.
The mark [10] stands for this setting: read-out: Assay 2 (KI), inhibition of ENPP1 hydrolysis of 2′,3′-cGAMP, no unit in Table 18 (Table 17 legend for this assay uses nM).

Where two headings read alike, the source gives them in different places.

T1 sequence (P22413 98-925): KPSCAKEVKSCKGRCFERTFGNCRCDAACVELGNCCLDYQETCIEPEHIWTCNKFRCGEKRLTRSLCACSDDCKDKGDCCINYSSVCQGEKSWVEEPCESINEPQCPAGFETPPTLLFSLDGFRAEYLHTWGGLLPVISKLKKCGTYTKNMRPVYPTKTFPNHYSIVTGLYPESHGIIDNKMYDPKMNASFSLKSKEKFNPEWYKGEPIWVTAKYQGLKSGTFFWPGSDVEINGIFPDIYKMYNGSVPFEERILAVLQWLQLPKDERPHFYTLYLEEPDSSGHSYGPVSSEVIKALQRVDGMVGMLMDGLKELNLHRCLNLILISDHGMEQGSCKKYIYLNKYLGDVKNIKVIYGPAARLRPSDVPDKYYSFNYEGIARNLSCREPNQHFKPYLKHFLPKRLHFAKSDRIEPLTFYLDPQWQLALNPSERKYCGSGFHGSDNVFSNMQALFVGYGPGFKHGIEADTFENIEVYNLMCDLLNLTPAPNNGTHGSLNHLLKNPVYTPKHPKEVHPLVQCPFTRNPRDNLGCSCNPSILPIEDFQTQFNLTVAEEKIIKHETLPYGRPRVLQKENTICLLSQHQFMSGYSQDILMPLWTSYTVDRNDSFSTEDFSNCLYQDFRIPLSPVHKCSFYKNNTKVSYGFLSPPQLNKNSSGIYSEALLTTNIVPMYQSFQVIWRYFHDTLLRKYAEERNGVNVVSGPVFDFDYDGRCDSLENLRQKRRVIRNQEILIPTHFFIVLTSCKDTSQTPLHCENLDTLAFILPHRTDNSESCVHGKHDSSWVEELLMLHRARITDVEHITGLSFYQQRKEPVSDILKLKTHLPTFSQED

As to `COc1cc2nccc(Oc3ccc([S@](C)(=N)=O)cc3)c2cc1OC` [Compound 1R, (R)-(4-((6,7-dimethoxyquinolin-4-yl)oxy)phenyl)(imino)(methyl)-λ^6-sulfanone], the IC50 is 3200 nM in test [1] (setting [3]) and more than 1000 nM in test [1] (setting [4]). Besides, the Ki was more than 300 nM in test [2] (setting [5]) and 330 nM in test [2] (setting [6]).

For `COc1ccc2c(Oc3ccc(S(C)(=N)=O)c(F)c3)ccnc2c1` (stereo not drawn) [Compound 10, (2-fluoro-4-((7-methoxyquinolin-4-yl)oxy)phenyl)(imino)(methyl)-λ^6-sulfanone], the IC50 is 10 to 1000 nM in test [1] (setting [7]) and 23 nM in test [1] (setting [3]). For the same compound, the Ki in test [2] (setting [5]) was less than 3 nM; in test [2] (setting [6]), 2.8 nM.

For `COc1cc2ncnc(OCc3ccc(S(C)(=N)=O)cc3)c2cc1OC` (stereo not drawn) [Compound 14, (4-(((6,7-dimethoxyquinazolin-4-yl)oxy)methyl)phenyl)(imino)(methyl)-λ^6-sulfanone], the IC50 in test [1] (setting [7]) is 10 to 1000 nM; in test [1] (setting [3]) it was 110 nM. Moreover, the Ki was 3 to 300 nM in test [2] (setting [5]) and 15 nM in test [2] (setting [6]).

Turning to `COc1cc2ncnc(Oc3ccc(S(C)(=N)=O)cc3)c2cc1OC` (stereo not drawn) [Compound 18, (4-((6,7-dimethoxyquinazolin-4-yl)oxy)phenyl)(imino)(methyl)-λ^6-sulfanone], the IC50 in test [1] (setting [7]) was 10 to 1000 nM; in test [1] (setting [3]) it was 180 nM. In addition, the Ki was 3 to 300 nM in test [2] (setting [5]) and 24 nM in test [2] (setting [6]).

For `CS(=N)(=O)c1ccc(Oc2cnnc3ccccc23)cc1` (stereo not drawn) [Compound 22, (4-(cinnolin-4-yloxy)phenyl)(imino)(methyl)-λ^6-sulfanone], the figures for the IC50 in test [1] (setting [3]) and in test [1] (setting [4]) were 1200 nM and more than 1000 nM, respectively. In addition, the figures for the Ki in test [2] (setting [5]) and in test [2] (setting [6]) were more than 300 nM and 310 nM, respectively.

For `COc1cc2ncc(C#N)c(Oc3ccc([S@](C)(=N)=O)cc3)c2cc1F` [Compound 44b], the IC50 in test [1] (setting [4]) is more than 1000 nM; in test [1] (setting [8]) it was 1900 nM. For the same compound, the Ki in test [2] (setting [9]) was more than 300 nM; in test [2] (setting [10]), 350 nM.

Take `COc1ccc2c(N3CCC4(CC3)CCN([S@@](C)(=N)=O)C4)ccnc2c1` [Compound 55b]: the IC50 in test [1] (setting [4]) was 10 to 1000 nM; in test [1] (setting [8]), 45 nM. Besides, the Ki is 3 to 300 nM in test [2] (setting [9]) and 7.3 nM in test [2] (setting [10]).

In the case of `COc1ccc2c(Oc3ccc([S@](=N)(=O)C4CC4)cc3)ccnc2c1` [Compound 60b], the IC50 was 10 to 1000 nM in test [1] (setting [4]) and 520 nM in test [1] (setting [8]). In addition, the Ki in test [2] (setting [9]) was 3 to 300 nM; in test [2] (setting [10]), 93 nM.

Turning to `COc1ccc2c(N3CCC(CCS(C)(=N)=O)CC3)ccnc2c1` (stereo not drawn) [Compound 69, imino(2-(1-(7-methoxyquinolin-4-yl)piperidin-4-yl)ethyl)(methyl)-λ^6-sulfanone], the IC50 in test [1] (setting [7]) is 10 to 1000 nM; in test [1] (setting [3]) it was 55 nM. In addition, the results for the Ki in test [2] (setting [5]) and in test [2] (setting [6]) were 3 to 300 nM and 10 nM, respectively.

`COc1ccc2c(NCc3ccc(S(C)(=N)=O)cc3)ccnc2c1` (stereo not drawn) [Compound 74, imino(4-(((7-methoxyquinolin-4-yl)amino)methyl)phenyl)(methyl)-λ^6-sulfanone]: the 50% inhibitory concentration (IC50) in test [1] (setting [7]) was 10 to 1000 nM; in test [1] (setting [3]) it was 11 nM. For the same compound, the Ki in test [2] (setting [5]) was less than 3 nM; in test [2] (setting [6]), 1.7 nM.

Regarding `COc1ccc2c(OCc3ccc([S@](C)(=N)=O)cc3)ccnc2c1` [Compound 75b], the IC50 in test [1] (setting [4]) is more than 1000 nM. Moreover, the figures for the inhibition constant Ki in test [2] (setting [9]) and in test [2] (setting [10]) were 3 to 300 nM and 98 nM, respectively.

`COc1ccc2c(Oc3ccc(CS(C)(=N)=O)cc3)ccnc2c1` (stereo not drawn) [Compound 79, imino(4-((7-methoxyquinolin-4-yl)oxy)benzyl)(methyl)-λ^6-sulfanone]: the IC50 was 10 to 1000 nM in test [1] (setting [7]) and 740 nM in test [1] (setting [3]). Besides, the results for the Ki in test [2] (setting [5]) and in test [2] (setting [6]) were 3 to 300 nM and 220 nM, respectively.

Take `COc1ccc2c(Oc3ccc([S@](C)(=N)=O)cc3)ccnc2c1` [Compound 80b]: the IC50 in test [1] (setting [4]) was 10 to 1000 nM; in test [1] (setting [8]) it was 180 nM. Moreover, the results for the Ki in test [2] (setting [9]) and in test [2] (setting [10]) were 3 to 300 nM and 13 nM, respectively.

As for `COc1cccc2c(Oc3ccc(S(C)(=N)=O)cc3)ncnc12` (stereo not drawn) [Compound 84, imino(4-((8-methoxyquinazolin-4-yl)oxy)phenyl)(methyl)-λ^6-sulfanone], the IC50 was 1300 nM in test [1] (setting [3]) and more than 1000 nM in test [1] (setting [4]). Moreover, the results for the Ki in test [2] (setting [5]) and in test [2] (setting [6]) were 3 to 300 nM and 210 nM, respectively.

For the compound `COc1ccc2c(-c3ccc(CCS(C)(=N)=O)cc3)ccnc2c1` (stereo not drawn) [Compound 98, imino(4-(7-methoxyquinolin-4-yl)phenethyl)(methyl)-λ^6-sulfanone], the IC50 in test [1] (setting [7]) is 10 to 1000 nM; in test [1] (setting [3]) it was 140 nM. For the same compound, the Ki was 3 to 300 nM in test [2] (setting [5]) and 25 nM in test [2] (setting [6]).

Turning to `CC[S@@](=N)(=O)c1ccc(Oc2ccnc3cc(OC)ccc23)cc1` [Compound 103a], the figures for the IC50 in test [1] (setting [4]) and in test [1] (setting [8]) were more than 1000 nM and 1600 nM, respectively. Besides, the Ki in test [2] (setting [9]) was more than 300 nM; in test [2] (setting [10]), 450 nM.

For `COc1cc2nccc(Oc3ccc([S@@](C)(=N)=O)cc3)c2cc1F` [Compound 114b], the figures for the IC50 in test [1] (setting [4]) and in test [1] (setting [8]) were 10 to 1000 nM and 77 nM, respectively. Also, the Ki in test [2] (setting [9]) was 3 to 300 nM; in test [2] (setting [10]) it was more than 25 nM.

On to `COc1cc2nccc(Oc3ccc(S(C)(=N)=O)c(F)c3)c2cc1OC` (stereo not drawn) [Compound 115, {4-[(6,7-dimethoxyquinolin-4-yl)oxy]-2-fluorophenyl}(imino)methyl-λ^6-sulfanone], for which the IC50 in test [1] (setting [7]) is 10 to 1000 nM; in test [1] (setting [3]), 85 nM. Besides, the Ki in test [2] (setting [5]) is 3 to 300 nM; in test [2] (setting [6]) it was 13 nM.

For the compound `COc1cc2nccc(Oc3ccc(S(C)(=N)=O)cc3F)c2cc1OC` (stereo not drawn) [Compound 116, {4-[(6,7-dimethoxyquinolin-4-yl)oxy]-3-fluorophenyl}(imino)methyl-λ^6-sulfanone], the results for the IC50 in test [1] (setting [7]) and in test [1] (setting [3]) were 10 to 1000 nM and 220 nM, respectively. In addition, the Ki is 3 to 300 nM in test [2] (setting [5]) and 25 nM in test [2] (setting [6]).

With `COc1ccc2c(Oc3cccc(S(C)(=N)=O)c3)ccnc2c1` (stereo not drawn) [Compound 117, imino({3-[(7-methoxyquinolin-4-yl)oxy]phenyl})methyl-λ^6-sulfanone], the IC50 in test [1] (setting [7]) was 10 to 1000 nM; in test [1] (setting [3]) it was 180 nM. The values for the Ki in test [2] (setting [5]) and in test [2] (setting [6]) were 3 to 300 nM and 94 nM, respectively.

Turning to `COc1cccc2c(Oc3ccc(S(C)(=N)=O)cc3)ccnc12` (stereo not drawn) [Compound 118, imino({4-[(8-methoxyquinolin-4-yl)oxy]phenyl})methyl-λ^6-sulfanone], the IC50 in test [1] (setting [7]) is 10 to 1000 nM; in test [1] (setting [3]), 160 nM. The Ki in test [2] (setting [5]) was 3 to 300 nM; in test [2] (setting [6]), 36 nM.

Consider `COc1ccc2c(Oc3ccc(S(C)(=N)=O)cc3)cnnc2c1` (stereo not drawn) [Compound 119, imino({4-[(7-methoxycinnolin-4-yl)oxy]phenyl})methyl-λ^6-sulfanone], for which the IC50 in test [1] (setting [7]) was 10 to 1000 nM; in test [1] (setting [3]), 66 nM. Besides, the Ki in test [2] (setting [5]) was 3 to 300 nM; in test [2] (setting [6]), 17 nM.

For `COc1cc2nccc(Oc3ccc([S@](=N)(=O)C4CC4)cc3)c2cc1F` [Compound 120b], the IC50 in test [1] (setting [4]) was 10 to 1000 nM; in test [1] (setting [8]) it was 37 nM. In addition, the Ki in test [2] (setting [9]) is 3 to 300 nM; in test [2] (setting [10]) it was 4.8 nM.

As to `CS(=N)(=O)c1ccc(Oc2ccnc3ccccc23)cc1` (stereo not drawn) [Compound 125, imino(methyl)[4-(quinolin-4-yloxy)phenyl]-λ^6-sulfanone], the IC50 was 10 to 1000 nM in test [1] (setting [7]) and 340 nM in test [1] (setting [3]). Besides, the affinity in test [2] (setting [6]) corresponds to a Ki of 110 nM.

For `COc1cc2nccc(Oc3ccc(S(C)(=N)=O)cc3)c2cc1Cl` (stereo not drawn) [Compound 126, {4-[(6-chloro-7-methoxyquinolin-4-yl)oxy]phenyl}(imino)methyl-λ^6-sulfanone], the values for the IC50 in test [1] (setting [7]) and in test [1] (setting [3]) were 10 to 1000 nM and 39 nM, respectively. Further, the Ki is 3 to 300 nM in test [2] (setting [5]) and 11 nM in test [2] (setting [6]).

With `COc1cc2nccc(Oc3ccc(S(C)(=N)=O)nc3)c2cc1OC` (stereo not drawn) [Compound 129, {5-[(6,7-dimethoxyquinolin-4-yl)oxy]pyridin-2-yl}(imino)methyl-λ^6-sulfanone], the results for the IC50 in test [1] (setting [7]) and in test [1] (setting [3]) were 10 to 1000 nM and 260 nM, respectively. Also, the inhibition constant (Ki) in test [2] (setting [5]) was 3 to 300 nM; in test [2] (setting [6]), 39 nM.

Consider `COc1ccc2c(OCc3cccc([S@](C)(=N)=O)c3)ccnc2c1` [Compound 133b], for which the results for the IC50 in test [1] (setting [4]) and in test [1] (setting [8]) were more than 1000 nM and more than 100 nM, respectively. In addition, the Ki in test [2] (setting [9]) was 3 to 300 nM; in test [2] (setting [10]), 49 nM.

Take `COc1cccc2c(OCc3ccc(S(C)(=N)=O)cc3)ccnc12` (stereo not drawn) [Compound 134, imino(4-{[(8-methoxyquinolin-4-yl)oxy]methyl}phenyl)methyl-λ^6-sulfanone]: the IC50 in test [1] (setting [3]) is 1100 nM.

For the compound `COc1cccc2c(-c3ccc(CCS(C)(=N)=O)cc3)ncnc12` (stereo not drawn) [Compound 154, imino({2-[4-(8-methoxyquinazolin-4-yl)phenyl]ethyl})methyl-λ^6-sulfanone], the IC50 in test [1] (setting [3]) was 1800 nM; in test [1] (setting [4]) it was more than 1000 nM.

With `CS(=N)(=O)Cc1ccc(-c2ccnc3ccccc23)cc1` (stereo not drawn) [Compound 155, imino(methyl){[4-(quinolin-4-yl)phenyl]methyl}-λ^6-sulfanone], the IC50 in test [1] (setting [3]) is 14000 nM; in test [1] (setting [4]), more than 1000 nM.
